{"source": "patent US20040248257A1", "about": "“SPEX compositions and methods of use” (The Scripps Research Institute, priority 2003, published 2004)", "key": {"hSPEX mRNA expression": {"system": "hSPEX mRNA expression", "conditions": "human cells; 10 μM U0126; cultured DP thymocytes; one experiment", "experimental": "(§1) The expression of mSPEX and hSPEX mRNAs is compared in cultured DP thymocytes in the presence or absence of stimulation with PMA and ionomycin and in the presence or absence of a MEK inhibitor (10 μM U0126)."}, "mSPEX mRNA expression": {"system": "mSPEX mRNA expression", "conditions": "murine cells; 10 μM U0126; cultured DP thymocytes; one experiment", "experimental": "as §1"}}, "data": [{"smiles": "N#CC(=C(/N)Sc1ccccc1N)/C(C#N)=C(\\N)Sc1ccccc1N", "note": "[U0126]", "values": [{"measurement": "inhibition of the increase of SPEX mRNA expression observed with PMA and ionomycin stimulation", "setting": "hSPEX mRNA expression", "value": "approximately 70%"}, {"measurement": "inhibition of the increase of SPEX mRNA expression observed with PMA and ionomycin stimulation", "setting": "mSPEX mRNA expression", "value": "approximately 70%"}]}]}
